Test results: PubChem BioAssay (NCI)
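Exposure lasted 48 hours, with cells grown in 96-well plates and compounds tested at five concentrations. The concentration for full growth arrest is given as TGI.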

What follows are molecules tested on HOP-62 NSCLC (assay: NCI anticancer screen, dose series, 48 h).
In the case of `COc1ccc(-c2ncnc(-c3ccc(OC)c(OC)c3)n2)cc1OC`, the TGI was greater than 100 µM. Molecule `CN(C)C(=O)Oc1ccc[n+](C)c1` has a TGI greater than 100 µM.

These molecules were tested on HOP-92 NSCLC (assay: NCI anticancer screen, dose series, 48 h).
`CN(N=O)C(=O)NNC(=O)N(C)N=O` was tested, and the TGI was greater than 100 µM. `CC1=C(C)C2(C#N)C(=O)N3C(=NC(c4ccccc4)NC3c3ccccc3)C2(C#N)C(c2ccccc2)N1` (stereo not drawn) gave a TGI greater than 100 µM. With `COc1ccc(-c2ncnc(-c3ccc(OC)c(OC)c3)n2)cc1OC` the TGI was greater than 100 µM.

These molecules were tested on HS 578T breast (assay: NCI anticancer screen, dose series, 48 h).
`CN(N=O)C(=O)NNC(=O)N(C)N=O` gave a TGI greater than 100 µM. Work on `CC1=C(C)C2(C#N)C(=O)N3C(=NC(c4ccccc4)NC3c3ccccc3)C2(C#N)C(c2ccccc2)N1` (stereo not drawn) yielded a TGI greater than 100 µM. Work on `Cc1cccc(-n2c(C)nc3ccc(NC(=S)Nc4ccccc4)cc3c2=O)c1` yielded a TGI greater than 100 µM. `COc1ccc(-c2ncnc(-c3ccc(OC)c(OC)c3)n2)cc1OC` gave a TGI greater than 100 µM. `CN(C)C(=O)Oc1ccc[n+](C)c1` gave a TGI greater than 100 µM.

These molecules were tested on HT29 colon (assay: NCI anticancer screen, dose series, 48 h).
For `CN(N=O)C(=O)NNC(=O)N(C)N=O`, the TGI was greater than 100 µM. In the case of `CC1=C(C)C2(C#N)C(=O)N3C(=NC(c4ccccc4)NC3c3ccccc3)C2(C#N)C(c2ccccc2)N1` (stereo not drawn), the TGI was greater than 100 µM. In the case of `Cc1cccc(-n2c(C)nc3ccc(NC(=S)Nc4ccccc4)cc3c2=O)c1`, the TGI was greater than 100 µM. `COc1ccc(-c2ncnc(-c3ccc(OC)c(OC)c3)n2)cc1OC` gave a TGI greater than 100 µM. `CN(C)C(=O)Oc1ccc[n+](C)c1` was tested, and the TGI was greater than 100 µM.

Each molecule was assayed on IGROV1 ovarian (assay: NCI anticancer screen, dose series, 48 h).
`CN(N=O)C(=O)NNC(=O)N(C)N=O` showed a TGI greater than 100 µM. `CC1=C(C)C2(C#N)C(=O)N3C(=NC(c4ccccc4)NC3c3ccccc3)C2(C#N)C(c2ccccc2)N1` (stereo not drawn) gave a TGI greater than 100 µM. Molecule `Cc1cccc(-n2c(C)nc3ccc(NC(=S)Nc4ccccc4)cc3c2=O)c1` has a TGI greater than 100 µM. Work on `COc1ccc(-c2ncnc(-c3ccc(OC)c(OC)c3)n2)cc1OC` yielded a TGI greater than 100 µM. With `CN(C)C(=O)Oc1ccc[n+](C)c1` the TGI was greater than 100 µM.

Each molecule was assayed on K-562 leukemia (assay: NCI anticancer screen, dose series, 48 h).
For `CN(N=O)C(=O)NNC(=O)N(C)N=O`, the TGI was greater than 100 µM. For `CC1=C(C)C2(C#N)C(=O)N3C(=NC(c4ccccc4)NC3c3ccccc3)C2(C#N)C(c2ccccc2)N1` (stereo not drawn), the TGI was greater than 100 µM. Work on `Cc1cccc(-n2c(C)nc3ccc(NC(=S)Nc4ccccc4)cc3c2=O)c1` yielded a TGI greater than 100 µM. `COc1ccc(-c2ncnc(-c3ccc(OC)c(OC)c3)n2)cc1OC` showed a TGI greater than 100 µM. In the case of `CN(C)C(=O)Oc1ccc[n+](C)c1`, the TGI was greater than 100 µM.

The molecules below were run on KM12 colon (assay: NCI anticancer screen, dose series, 48 h).
In the case of `CN(N=O)C(=O)NNC(=O)N(C)N=O`, the TGI was greater than 100 µM. Work on `CC1=C(C)C2(C#N)C(=O)N3C(=NC(c4ccccc4)NC3c3ccccc3)C2(C#N)C(c2ccccc2)N1` (stereo not drawn) yielded a TGI greater than 100 µM. Work on `Cc1cccc(-n2c(C)nc3ccc(NC(=S)Nc4ccccc4)cc3c2=O)c1` yielded a TGI greater than 100 µM. In the case of `COc1ccc(-c2ncnc(-c3ccc(OC)c(OC)c3)n2)cc1OC`, the TGI was greater than 100 µM. In the case of `CN(C)C(=O)Oc1ccc[n+](C)c1`, the TGI was greater than 100 µM.

These molecules were tested on LOX IMVI melanoma (assay: NCI anticancer screen, dose series, 48 h).
Molecule `CN(N=O)C(=O)NNC(=O)N(C)N=O` has a TGI greater than 100 µM. With `CC1=C(C)C2(C#N)C(=O)N3C(=NC(c4ccccc4)NC3c3ccccc3)C2(C#N)C(c2ccccc2)N1` (stereo not drawn) the TGI was greater than 100 µM. In the case of `Cc1cccc(-n2c(C)nc3ccc(NC(=S)Nc4ccccc4)cc3c2=O)c1`, the TGI was greater than 100 µM. `COc1ccc(-c2ncnc(-c3ccc(OC)c(OC)c3)n2)cc1OC` gave a TGI greater than 100 µM. Molecule `CN(C)C(=O)Oc1ccc[n+](C)c1` has a TGI greater than 100 µM.

What follows are molecules tested on M14 melanoma (assay: NCI anticancer screen, dose series, 48 h).
Molecule `CN(N=O)C(=O)NNC(=O)N(C)N=O` has a TGI greater than 100 µM. `CC1=C(C)C2(C#N)C(=O)N3C(=NC(c4ccccc4)NC3c3ccccc3)C2(C#N)C(c2ccccc2)N1` (stereo not drawn) was tested, and the TGI was greater than 100 µM. `COc1ccc(-c2ncnc(-c3ccc(OC)c(OC)c3)n2)cc1OC` showed a TGI greater than 100 µM.

Each molecule was assayed on MALME-3M melanoma (assay: NCI anticancer screen, dose series, 48 h).
`CC1=C(C)C2(C#N)C(=O)N3C(=NC(c4ccccc4)NC3c3ccccc3)C2(C#N)C(c2ccccc2)N1` (stereo not drawn) gave a TGI greater than 100 µM. With `Cc1cccc(-n2c(C)nc3ccc(NC(=S)Nc4ccccc4)cc3c2=O)c1` the TGI was greater than 100 µM. `COc1ccc(-c2ncnc(-c3ccc(OC)c(OC)c3)n2)cc1OC` gave a TGI greater than 100 µM. Molecule `CN(C)C(=O)Oc1ccc[n+](C)c1` has a TGI greater than 100 µM.

The molecules below were run on MCF7 breast (assay: NCI anticancer screen, dose series, 48 h).
`CN(N=O)C(=O)NNC(=O)N(C)N=O` gave a TGI greater than 100 µM. `CC1=C(C)C2(C#N)C(=O)N3C(=NC(c4ccccc4)NC3c3ccccc3)C2(C#N)C(c2ccccc2)N1` (stereo not drawn) gave a TGI greater than 100 µM. In the case of `Cc1cccc(-n2c(C)nc3ccc(NC(=S)Nc4ccccc4)cc3c2=O)c1`, the TGI was greater than 100 µM. With `COc1ccc(-c2ncnc(-c3ccc(OC)c(OC)c3)n2)cc1OC` the TGI was greater than 100 µM. `CN(C)C(=O)Oc1ccc[n+](C)c1` was tested, and the TGI was greater than 100 µM.

The molecules below were run on MDA-MB-231 breast (assay: NCI anticancer screen, dose series, 48 h).
`CN(N=O)C(=O)NNC(=O)N(C)N=O` gave a TGI greater than 100 µM. Molecule `CC1=C(C)C2(C#N)C(=O)N3C(=NC(c4ccccc4)NC3c3ccccc3)C2(C#N)C(c2ccccc2)N1` (stereo not drawn) has a TGI greater than 100 µM. `Cc1cccc(-n2c(C)nc3ccc(NC(=S)Nc4ccccc4)cc3c2=O)c1` showed a TGI greater than 100 µM. Work on `COc1ccc(-c2ncnc(-c3ccc(OC)c(OC)c3)n2)cc1OC` yielded a TGI greater than 100 µM. `CN(C)C(=O)Oc1ccc[n+](C)c1` gave a TGI greater than 100 µM.

The molecules below were run on MDA-MB-435 (assay: NCI anticancer screen, dose series, 48 h).
Molecule `CN(N=O)C(=O)NNC(=O)N(C)N=O` has a TGI greater than 100 µM. In the case of `CC1=C(C)C2(C#N)C(=O)N3C(=NC(c4ccccc4)NC3c3ccccc3)C2(C#N)C(c2ccccc2)N1` (stereo not drawn), the TGI was greater than 100 µM. `Cc1cccc(-n2c(C)nc3ccc(NC(=S)Nc4ccccc4)cc3c2=O)c1` gave a TGI greater than 100 µM. Work on `COc1ccc(-c2ncnc(-c3ccc(OC)c(OC)c3)n2)cc1OC` yielded a TGI greater than 100 µM. Molecule `CN(C)C(=O)Oc1ccc[n+](C)c1` has a TGI greater than 100 µM.

These molecules were tested on MDA-N (assay: NCI anticancer screen, dose series, 48 h).
For `CN(N=O)C(=O)NNC(=O)N(C)N=O`, the TGI was greater than 100 µM. Molecule `CC1=C(C)C2(C#N)C(=O)N3C(=NC(c4ccccc4)NC3c3ccccc3)C2(C#N)C(c2ccccc2)N1` (stereo not drawn) has a TGI greater than 100 µM. For `Cc1cccc(-n2c(C)nc3ccc(NC(=S)Nc4ccccc4)cc3c2=O)c1`, the TGI was greater than 100 µM. Molecule `COc1ccc(-c2ncnc(-c3ccc(OC)c(OC)c3)n2)cc1OC` has a TGI greater than 100 µM. Work on `CN(C)C(=O)Oc1ccc[n+](C)c1` yielded a TGI greater than 100 µM.

These molecules were tested on MOLT-4 leukemia (assay: NCI anticancer screen, dose series, 48 h).
Molecule `CN(N=O)C(=O)NNC(=O)N(C)N=O` has a TGI greater than 100 µM. With `CC1=C(C)C2(C#N)C(=O)N3C(=NC(c4ccccc4)NC3c3ccccc3)C2(C#N)C(c2ccccc2)N1` (stereo not drawn) the TGI was greater than 100 µM. `Cc1cccc(-n2c(C)nc3ccc(NC(=S)Nc4ccccc4)cc3c2=O)c1` was tested, and the TGI was 71.9 µM. `CN(C)C(=O)Oc1ccc[n+](C)c1` showed a TGI greater than 100 µM.

The molecules below were run on NCI-H226 lung (assay: NCI anticancer screen, dose series, 48 h).
With `CN(N=O)C(=O)NNC(=O)N(C)N=O` the TGI was greater than 100 µM. With `CC1=C(C)C2(C#N)C(=O)N3C(=NC(c4ccccc4)NC3c3ccccc3)C2(C#N)C(c2ccccc2)N1` (stereo not drawn) the TGI was greater than 100 µM.
